Values of other authors, collected in patent publication US11890293B2, “Synthetic composition for treating metabolic disorders” (GLYCOM A/S, priority 2014, dated 2024).

Experiments:
[1] = system: type 2 diabetes-model mice; conditions: oral doses

Structure (SMILES) | insulin secretion [1] | fat accumulation in the liver and other organs (high-fat diet mice) | fat accumulation in the liver and other organs (high-fat diet rats)
CC(=O)N[C@H]1[C@H](O[C@H]2[C@@H](O)[C@@H](CO)O[C@@H](O[C@H]3[C@H](O)[C@@H](O)C(O)O[C@@H]3CO)[C@@H]2O)O[C@H](CO)[C@@H](O[C@@H]2O[C@H](CO)[C@H](O)[C@H](O)[C@H]2O)[C@@H]1O (mixture of isomers) [LNnT, lacto-N-neotetraose] | promote insulin secretion |  | 
CC(=O)N[C@H]1[C@H]([C@H](O)[C@H](O)CO)O[C@@](O[C@H]2[C@@H](O)[C@@H](CO)O[C@@H](O[C@H]3[C@H](O)[C@@H](O)C(O)O[C@@H]3CO)[C@@H]2O)(C(=O)O)C[C@@H]1O (stereo partly shown) [3′-SL, 3′-sialyllactose] | promote insulin secretion | reduce/prevent fat accumulation in the liver and other organs | reduce/prevent fat accumulation in the liver and other organs
CC(=O)N[C@H]1[C@H]([C@H](O)[C@H](O)CO)O[C@@](OC[C@H]2O[C@@H](O[C@H]3[C@H](O)[C@@H](O)[C@H](O)O[C@@H]3CO)[C@H](O)[C@@H](O)[C@H]2O)(C(=O)O)C[C@@H]1O [6′-SL, 6′-sialyllactose] | promote insulin secretion | reduce/prevent fat accumulation in the liver and other organs | reduce/prevent fat accumulation in the liver and other organs
